We go through four molecules from ChEMBL document CHEMBL3091312, “Characterization and anti-inflammatory effects of iodinated acetylenic acids isolated from the marine sponges Suberites mammilaris and Suberites japonicus” (J Nat Prod, 2013).

A word on the IC50: it is the concentration that inhibits the measured activity by half.

Common to all, as to format: functional, cell-based
The subject of test [1] is BV-2. Put plainly: Antiinflammatory activity against mouse BV2 cells assessed as inhibition of LPS-induced PGE2 production at 5 to 10 uM preincubated for 1 hr followed by LPS addition measured after 24 hrs by ELISA. For orientation: ELISA stands for enzyme-linked immunosorbent assay.
For test [2], the system named is BV-2. The experiment in a line: Antiinflammatory activity against mouse BV2 cells assessed as effect on PGE2 level at 5 to 10 uM after 24 hrs by ELISA relative to control.
Test [3] concerns RAW264.7. Put plainly: Antiinflammatory activity against mouse RAW264.7 cells assessed as effect on PGE2 level at 5 to 10 uM after 24 hrs by ELISA relative to control.
Test [4] in a line: Antiinflammatory activity against mouse BV2 cells assessed as inhibition of LPS-induced NO production preincubated for 1 hr followed by LPS addition measured after 24 hrs by Griess method. Particulars: BV-2.
Test [5] has as its system RAW264.7. Put plainly: Antiinflammatory activity against mouse RAW264.7 cells assessed as inhibition of LPS-induced NO production preincubated for 1 hr followed by LPS addition measured after 24 hrs by Griess method. In general terms: The Griess reaction detects nitrite, a stable product of nitric oxide.
Test [6] has as its system RAW264.7. Put plainly: Antiinflammatory activity against mouse RAW264.7 cells assessed as inhibition of LPS-induced PGE2 production at 5 to 10 uM preincubated for 1 hr followed by LPS addition measured after 24 hrs by ELISA.

SMILES strings stand for the structures. Activity calls are given as the source filed them. The calls are words filed in the database; no cut-off is given here.

Turning to `CCCCC/C=C\CC#CC/C=C\C/C(I)=C\CCCC(=O)OC`, the inhibition result with BV-2 [1] is “Active”. Further, the result in the test with BV-2 [2] and in the test on RAW264.7 [3] was inactive. In addition, in test [4], the IC50 turned out to be 1.8 µM. Besides, the inhibition result in the test on RAW264.7 [5] is “inactive”.

For `C/C=C/CC/C(I)=C\CC#CC/C=C\C/C(I)=C\CCCC(=O)OC`, in the test on RAW264.7 [6], the inhibition result was “Active”. The outcome with BV-2 [2] and with RAW264.7 [3] was inactive. Also, the IC50 in test [4] turned out to be 18 µM; with RAW264.7 [5], 7 µM.

`C=C/C=C/C/C(I)=C\CC#CC/C=C\C/C(I)=C\CCCC(=O)OC`: the inhibition entry in the test on RAW264.7 [6] is “Active”. For the same molecule, the outcome in the test with BV-2 [2] and in the test on RAW264.7 [3] was inactive. Besides, the results for the IC50 (in test [4]; in the test on RAW264.7 [5]) were 23.3 µM and 3.9 µM, respectively.

Regarding `C=CCCC/C=C\CC#CC/C=C\C/C(I)=C\CCCC(=O)OC`, in the test on BV-2 [1], the inhibition entry is “Active”. Moreover, the result in the test on BV-2 [2] and in the test on RAW264.7 [3] was inactive. Also, the values for the half-inhibitory concentration (IC50) (in test [4]; with RAW264.7 [5]) were 3.1 µM and 53.6 µM, respectively.
